Experimental data taken from the supplement of paper PMC10307832.

Legend:
Experiment in all cases: relative viability (nuclei count vs DMSO), 5 days (fraction); higher = more cells survive
Pazopanib + Dasatinib = compound: Cc1ccc(Nc2nccc(N(C)c3ccc4c(C)n(C)nc4c3)n2)cc1S(N)(=O)=O [Pazopanib] + Cc1nc(Nc2ncc(C(=O)Nc3c(C)cccc3Cl)s2)cc(N2CCN(CCO)CC2)n1 [Dasatinib] (partner 0.075 µM)
Outline: (§1)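 A single step with final 0.05% Triton X-100, 1% formaldehyde and 1 ug/ml Hoechst fixed the cells and stained nuclei 5 days after treatment. Lung cancer cell lines in 1536-well plates had been treated by pin tool the day after seeding with one drug alone or a fixed anchor-drug dose plus five library-drug doses (not always all listed) in √10 steps, and nuclei were counted on 4× images. Relative viability is the ratio of nuclei in treated wells to nuclei in vehicle wells, taken as the median of duplicate plates.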

Ponatinib + Decitabine = compound: Cc1ccc(C(=O)Nc2ccc(CN3CCN(C)CC3)c(C(F)(F)F)c2)cc1C#Cc1cnc2cccnn12 [Ponatinib] + Nc1ncn([C@H]2C[C@H](O)[C@@H](CO)O2)c(=O)n1 [Decitabine] (partner 2 µM)
Outline: as §1

Pazopanib + Luminespib = compound: Cc1ccc(Nc2nccc(N(C)c3ccc4c(C)n(C)nc4c3)n2)cc1S(N)(=O)=O [Pazopanib] + CCNC(=O)c1noc(-c2cc(C(C)C)c(O)cc2O)c1-c1ccc(CN2CCOCC2)cc1 [Luminespib] (partner 0.01 µM)
Outline: as §1

Ponatinib + Bortezomib = compound: Cc1ccc(C(=O)Nc2ccc(CN3CCN(C)CC3)c(C(F)(F)F)c2)cc1C#Cc1cnc2cccnn12 [Ponatinib] + CC(C)C[C@H](NC(=O)[C@H](Cc1ccccc1)NC(=O)c1cnccn1)B(O)O [Bortezomib] (partner 0.002 µM)
Outline: as §1

| Cell Line | relative viability (Pazopanib + Dasatinib; first compound 0.01 µM) | relative viability (Pazopanib + Dasatinib; first compound 0.03162 µM) | relative viability (Pazopanib + Dasatinib; first compound 0.1 µM) | relative viability (Pazopanib + Dasatinib; first compound 0.3162 µM) | relative viability (Pazopanib + Dasatinib; first compound 1 µM) | relative viability (Ponatinib + Decitabine; first compound 0.002 µM) | relative viability (Ponatinib + Decitabine; first compound 0.006325 µM) | relative viability (Ponatinib + Decitabine; first compound 0.06325 µM) | relative viability (Ponatinib + Decitabine; first compound 0.2 µM) | relative viability (Pazopanib + Luminespib; first compound 0.01 µM) | relative viability (Pazopanib + Luminespib; first compound 0.03162 µM) | relative viability (Pazopanib + Luminespib; first compound 0.1 µM) | relative viability (Pazopanib + Luminespib; first compound 0.3162 µM) | relative viability (Pazopanib + Luminespib; first compound 1 µM) | relative viability (Ponatinib + Bortezomib; first compound 0.002 µM) | relative viability (Ponatinib + Bortezomib; first compound 0.006325 µM) | relative viability (Ponatinib + Bortezomib; first compound 0.06325 µM) | relative viability (Ponatinib + Bortezomib; first compound 0.2 µM) |
| --- | --- | --- | --- | --- | --- | --- | --- | --- | --- | --- | --- | --- | --- | --- | --- | --- | --- | --- |
| NCI-H1355 | 0.443 | 0.549 | 0.773 | 0.639 | 0.686 | 0.335 | 0.355 | 0.399 | 0.346 | 0.695 | 0.709 | 0.816 | 0.675 | 0.838 | 1.09 | 1.11 | 1.25 | 1.19 |
| NCI-H1437 | 0.399 | 0.465 | 0.353 | 0.396 | 0.723 | 0.498 | 0.548 | 0.606 | 0.593 | 1.25 | 1.16 | 1.13 | 1.11 | 1.07 | 0.572 | 0.681 | 0.608 | 0.66 |
| NCI-H1650 | 0.301 | 0.375 | 0.381 | 0.319 | 0.403 | 0.328 | 0.653 | 0.449 | 0.324 | 0.195 | 0.189 | 0.235 | 0.195 | 0.187 | 0.216 | 0.193 | 0.227 | 0.222 |
| NCI-H1651 | 0.371 | 0.46 | 0.397 | 0.436 | 0.5 | 0.613 | 0.704 | 0.615 | 0.665 | 0.853 | 0.869 | 0.785 | 0.741 | 0.878 | 0.936 | 0.869 | 0.975 | 0.983 |
| NCI-H1666 | 0.854 | 0.833 | 0.801 | 0.864 | 0.772 | 0.752 | 0.745 | 0.812 | 0.766 | 1.03 | 1.08 | 0.99 | 1.06 | 1.06 | 0.736 | 0.832 | 0.985 | 1.11 |
| NCI-H1734 | 0.387 | 0.471 | 0.458 | 0.459 | 0.478 | 0.477 | 0.459 | 0.524 | 0.429 | 0.18 | 0.207 | 0.182 | 0.179 | 0.208 | 0.87 | 0.957 | 0.917 | 0.905 |
| NCI-H1755 | 0.333 | 0.398 | 0.433 | 0.384 | 0.411 | 0.701 | 0.73 | 0.719 | 0.639 | 0.422 | 0.42 | 0.261 | 0.448 | 0.527 | 0.953 | 0.99 | 0.98 | 1.01 |
| NCI-H1792 | – | 0.728 | 0.681 | 0.834 | 0.774 | 0.476 | 0.488 | 0.516 | 0.495 | – | 0.394 | 0.476 | 0.423 | 0.422 | 0.918 | 0.942 | 1.14 | 0.854 |
| NCI-H1915 | 0.253 | 0.319 | 0.321 | 0.318 | 0.402 | 0.244 | 0.274 | 0.246 | 0.257 | 0.871 | 0.805 | 0.889 | 0.701 | 0.699 | 0.849 | 0.975 | 0.923 | 0.871 |
